Laboratory results reported in the CheMixHub viscosity set.

Assay: xn = mol fraction of the nth substance listed

CCCCN + CCCCO
Details | viscosity [mPa·s]
293.15 K, 101 kPa, x1 = 0.1 | 2.51
293.15 K, 101 kPa, x1 = 0.3 | 1.85
293.15 K, 101 kPa, x1 = 0.5 | 1.25
293.15 K, 101 kPa, x1 = 0.7 | 0.95
293.15 K, 101 kPa, x1 = 0.9 | 0.68
298.15 K, 100 kPa, x2 = 0.099 | 0.553
298.15 K, 100 kPa, x2 = 0.195 | 0.663
298.15 K, 100 kPa, x2 = 0.294 | 0.794
298.15 K, 100 kPa, x2 = 0.401 | 0.951
298.15 K, 100 kPa, x2 = 0.493 | 1.101
298.15 K, 100 kPa, x2 = 0.6 | 1.312
298.15 K, 100 kPa, x2 = 0.695 | 1.531
298.15 K, 100 kPa, x2 = 0.8 | 1.818
298.15 K, 100 kPa, x2 = 0.893 | 2.131
298.15 K, 101.32 kPa, x2 = 0.0983 | 0.5497
298.15 K, 101.32 kPa, x2 = 0.1986 | 0.6488
298.15 K, 101.32 kPa, x2 = 0.2972 | 0.7685
298.15 K, 101.32 kPa, x2 = 0.4004 | 0.9222
298.15 K, 101.32 kPa, x2 = 0.4976 | 1.085
298.15 K, 101.32 kPa, x2 = 0.5988 | 1.291
298.15 K, 101.32 kPa, x2 = 0.7009 | 1.518
298.15 K, 101.32 kPa, x2 = 0.7974 | 1.782
298.15 K, 101.32 kPa, x2 = 0.899 | 2.123
303.15 K, 101 kPa, x1 = 0.01068 | 2.228
303.15 K, 101 kPa, x1 = 0.02055 | 2.205
303.15 K, 101 kPa, x1 = 0.0277 | 2.185
303.15 K, 101 kPa, x1 = 0.04127 | 2.155
303.15 K, 101 kPa, x1 = 0.05004 | 2.135
303.15 K, 101 kPa, x1 = 0.05896 | 2.116
303.15 K, 101 kPa, x1 = 0.07244 | 2.087
303.15 K, 101 kPa, x1 = 0.08331 | 2.059
303.15 K, 101 kPa, x1 = 0.09019 | 2.04
303.15 K, 101.33 kPa, x1 = 0.092 | 2.08
303.15 K, 101.33 kPa, x1 = 0.1008 | 1.909
303.15 K, 101.33 kPa, x1 = 0.1886 | 1.829
303.15 K, 101.33 kPa, x1 = 0.2007 | 1.627
303.15 K, 101.33 kPa, x1 = 0.2824 | 1.565
303.15 K, 101.33 kPa, x1 = 0.3004 | 1.395
303.15 K, 101.33 kPa, x1 = 0.3824 | 1.314
303.15 K, 101.33 kPa, x1 = 0.4 | 1.191
303.15 K, 101.33 kPa, x1 = 0.5009 | 1.019
303.15 K, 101.33 kPa, x1 = 0.5186 | 1.036
303.15 K, 101.33 kPa, x1 = 0.6001 | 0.869
303.15 K, 101.33 kPa, x1 = 0.6186 | 0.8627
303.15 K, 101.33 kPa, x1 = 0.6997 | 0.734
303.15 K, 101.33 kPa, x1 = 0.7158 | 0.7221
303.15 K, 101.33 kPa, x1 = 0.7999 | 0.625
303.15 K, 101.33 kPa, x1 = 0.8131 | 0.6087
303.15 K, 101.33 kPa, x1 = 0.9001 | 0.536
303.15 K, 101.33 kPa, x1 = 0.9011 | 0.5224
313.15 K, 101.3 kPa, x2 = 0.0992 | 0.4434
313.15 K, 101.3 kPa, x2 = 0.1967 | 0.516
313.15 K, 101.3 kPa, x2 = 0.2981 | 0.602
313.15 K, 101.3 kPa, x2 = 0.398 | 0.7038
313.15 K, 101.3 kPa, x2 = 0.4956 | 0.8181
313.15 K, 101.3 kPa, x2 = 0.5979 | 0.9549
313.15 K, 101.3 kPa, x2 = 0.6978 | 1.108
313.15 K, 101.3 kPa, x2 = 0.8009 | 1.289
313.15 K, 101.3 kPa, x2 = 0.9 | 1.503
313.15 K, 101.33 kPa, x1 = 0.092 | 1.662
313.15 K, 101.33 kPa, x1 = 0.1008 | 1.518
313.15 K, 101.33 kPa, x1 = 0.1886 | 1.476
313.15 K, 101.33 kPa, x1 = 0.2007 | 1.305
313.15 K, 101.33 kPa, x1 = 0.2824 | 1.286
313.15 K, 101.33 kPa, x1 = 0.3004 | 1.12
313.15 K, 101.33 kPa, x1 = 0.3824 | 1.086
313.15 K, 101.33 kPa, x1 = 0.4 | 0.976
313.15 K, 101.33 kPa, x1 = 0.5009 | 0.843
313.15 K, 101.33 kPa, x1 = 0.5186 | 0.856
313.15 K, 101.33 kPa, x1 = 0.6001 | 0.73
313.15 K, 101.33 kPa, x1 = 0.6186 | 0.7186
313.15 K, 101.33 kPa, x1 = 0.6997 | 0.622
313.15 K, 101.33 kPa, x1 = 0.7158 | 0.6085
313.15 K, 101.33 kPa, x1 = 0.7999 | 0.539
313.15 K, 101.33 kPa, x1 = 0.8131 | 0.5227
313.15 K, 101.33 kPa, x1 = 0.9001 | 0.47
313.15 K, 101.33 kPa, x1 = 0.9011 | 0.4542
323.15 K, 101.33 kPa, x1 = 0.1008 | 1.228
323.15 K, 101.33 kPa, x1 = 0.2007 | 1.065
323.15 K, 101.33 kPa, x1 = 0.3004 | 0.92
323.15 K, 101.33 kPa, x1 = 0.4 | 0.803
323.15 K, 101.33 kPa, x1 = 0.5009 | 0.7
323.15 K, 101.33 kPa, x1 = 0.6001 | 0.615
323.15 K, 101.33 kPa, x1 = 0.6997 | 0.534
323.15 K, 101.33 kPa, x1 = 0.7999 | 0.467
323.15 K, 101.33 kPa, x1 = 0.9001 | 0.407

O=C([O-])c1ccccc1O.[Na+] + O
viscosity [mPa·s]
Details | 293.15 K | 298.15 K | 303.15 K | 308.15 K | 313.15 K | 318.15 K
100 kPa, x1 = 5.685e-05 | 1.003 | 0.8913 | 0.7982 | 0.7198 | 0.6537 | –
100 kPa, x1 = 0.0001129 | 1.006 | 0.8924 | 0.7983 | 0.7207 | 0.6543 | –
100 kPa, x1 = 0.0004518 | 1.013 | 0.8989 | 0.8049 | 0.7259 | 0.659 | –
100 kPa, x1 = 0.0009067 | 1.024 | 0.9079 | 0.8132 | 0.7334 | 0.6657 | –
100 kPa, x1 = 0.001366 | 1.037 | 0.9164 | 0.8198 | 0.7394 | 0.6711 | –
100 kPa, x1 = 0.001826 | 1.045 | 0.9259 | 0.8289 | 0.748 | 0.6781 | –
100 kPa, x1 = 0.002292 | 1.056 | 0.9367 | 0.8375 | 0.7552 | 0.6844 | –
100 kPa, x1 = 0.00276 | 1.067 | 0.9449 | 0.8458 | 0.7614 | 0.6908 | –
100 kPa, x1 = 0.003231 | 1.076 | 0.9506 | 0.8501 | 0.7666 | 0.6959 | –
101 kPa, x1 = 0.000472 | 1.014 | 0.9009 | – | – | – | –
101 kPa, x1 = 0.000925 | 1.025 | 0.9102 | – | – | – | –
101 kPa, x1 = 0.001 | 1.025 | 0.9152 | 0.8184 | 0.7362 | 0.6684 | 0.6111
101 kPa, x1 = 0.00135 | 1.036 | 0.9188 | – | – | – | –
101 kPa, x1 = 0.0018 | 1.046 | 0.9279 | – | – | – | –
101 kPa, x1 = 0.002 | 1.05 | 0.9359 | 0.8392 | 0.7538 | 0.6817 | 0.6235
101 kPa, x1 = 0.00224 | 1.057 | 0.937 | – | – | – | –
101 kPa, x1 = 0.002288 | – | 0.946 | 0.842 | 0.757 | 0.684 | –
101 kPa, x1 = 0.002647 | 1.067 | 0.9454 | – | – | – | –
101 kPa, x1 = 0.003578 | 1.089 | – | – | – | – | –
101 kPa, x1 = 0.004685 | – | 0.983 | 0.875 | 0.786 | 0.714 | –
101 kPa, x1 = 0.005317 | 1.131 | – | – | – | – | –
101 kPa, x1 = 0.007012 | 1.171 | – | – | – | – | –
101 kPa, x1 = 0.009424 | – | 1.083 | 0.963 | 0.863 | 0.781 | –
101 kPa, x1 = 0.01337 | – | 1.188 | 1.055 | 0.944 | 0.846 | –
101 kPa, x1 = 0.01919 | – | 1.354 | 1.195 | 1.063 | 0.95 | –
101 kPa, x1 = 0.02192 | – | 1.44 | 1.265 | 1.125 | 1.008 | –
101 kPa, x1 = 0.02737 | – | 1.628 | 1.423 | 1.261 | 1.132 | –
